Source: PubChem BioAssay AID256 (DTP/NCI, 2004)
Toxic doses and inconclusive results are not listed.

System: CD2F1 mice, L1210 leukemia ip, survival T/C
Assay: NCI In Vivo Anticancer Drug Screen. Data for tumor model L1210 Leukemia (intraperitoneal) in CD2F1 (CDF1) mice
Conditions: higher = longer survival
Method: The antitumor activity of compounds was measured in mice bearing transplantable tumors. Survival or tumor size were measured and the results are expressed as the measurement made in the treated group (T) divided by the measurement made in the vehicle treated control group (C). The tumor model used in this assay is L1210 Leukemia (intraperitoneal) in CD2F1 (CDF1) mice

[1] = endpoint: mean survival time, dose: 100.0 mg/kg/injection, schedule: Q01DX001 (ip), vehicle: saline
[2] = endpoint: mean survival time, dose: 200.0 mg/kg/injection, schedule: Q01DX001 (ip), vehicle: saline
[3] = endpoint: mean survival time, dose: 400.0 mg/kg/injection, schedule: Q01DX001 (ip), vehicle: saline
[4] = endpoint: mean survival time, dose: 100.0 mg/kg/injection, schedule: Q04DX002 (ip), vehicle: saline with Tween-80
[5] = endpoint: mean survival time, dose: 200.0 mg/kg/injection, schedule: Q04DX002 (ip), vehicle: saline with Tween-80
[6] = endpoint: mean survival time, dose: 400.0 mg/kg/injection, schedule: Q04DX002 (ip), vehicle: saline with Tween-80
[7] = endpoint: mean survival time, dose: 100.0 mg/kg/injection, schedule: Q04DX003 (ip), vehicle: saline with Tween-80
[8] = endpoint: mean survival time, dose: 200.0 mg/kg/injection, schedule: Q04DX003 (ip), vehicle: saline with Tween-80
[9] = endpoint: mean survival time, dose: 400.0 mg/kg/injection, schedule: Q04DX003 (ip), vehicle: saline with Tween-80
[10] = endpoint: mean survival time, dose: 100.0 mg/kg/injection, schedule: Q01DX009 (ip), vehicle: saline
[11] = endpoint: mean survival time, dose: 200.0 mg/kg/injection, schedule: Q01DX009 (ip), vehicle: saline
[12] = endpoint: mean survival time, dose: 100.0 mg/kg/injection, schedule: Q01DX001 (ip), vehicle: saline with Tween-80
[13] = endpoint: mean survival time, dose: 200.0 mg/kg/injection, schedule: Q01DX001 (ip), vehicle: saline with Tween-80
[14] = endpoint: mean survival time, dose: 400.0 mg/kg/injection, schedule: Q01DX001 (ip), vehicle: saline with Tween-80
[15] = endpoint: mean survival time, dose: 50.0 mg/kg/injection, schedule: Q01DX009 (ip), vehicle: saline with Tween-80
[16] = endpoint: mean survival time, dose: 100.0 mg/kg/injection, schedule: Q01DX009 (ip), vehicle: saline with Tween-80
[17] = endpoint: mean survival time, dose: 200.0 mg/kg/injection, schedule: Q01DX009 (ip), vehicle: saline with Tween-80

COC(=O)c1nccnc1N
T/C (endpoint: mean survival time, dose: 100.0 mg/kg/injection, schedule: Q04DX002 (ip), vehicle: saline): 96 % of control | T/C (endpoint: mean survival time, dose: 200.0 mg/kg/injection, schedule: Q04DX002 (ip), vehicle: saline): 105 % of control | T/C (endpoint: mean survival time, dose: 400.0 mg/kg/injection, schedule: Q04DX002 (ip), vehicle: saline): 113 % of control

CCOC(C=O)OCC
T/C [1]: 103 % of control | T/C [2]: 97 % of control | T/C [3]: 103 % of control

COC(=O)Nc1ccc(Cl)cc1[N+](=O)[O-]
T/C [4]: 95 % of control | T/C [5]: 95 % of control | T/C [6]: 91 % of control

C[C@]12CC[C@@H]3c4ccc(OC(=O)Cc5ccc(N(CCCl)CCCl)cc5)cc4CC[C@H]3[C@@H]1CC[C@@H]2OC(=O)Cc1ccc(N(CCCl)CCCl)cc1
T/C (endpoint: median survival time, dose: 25.0 mg/kg/injection, schedule: Q01DX009 (ip), vehicle: Klucel (hydroxypropylcellulose) (HPC)): 89 % of control | T/C (endpoint: median survival time, dose: 50.0 mg/kg/injection, schedule: Q01DX009 (ip), vehicle: Klucel (hydroxypropylcellulose) (HPC)): 92 % of control | T/C (endpoint: median survival time, dose: 100.0 mg/kg/injection, schedule: Q01DX009 (ip), vehicle: Klucel (hydroxypropylcellulose) (HPC)): 94 % of control | T/C (endpoint: median survival time, dose: 200.0 mg/kg/injection, schedule: Q01DX009 (ip), vehicle: Klucel (hydroxypropylcellulose) (HPC)): 92 % of control | T/C (endpoint: median survival time, dose: 400.0 mg/kg/injection, schedule: Q01DX009 (ip), vehicle: Klucel (hydroxypropylcellulose) (HPC)): 101 % of control

COC(=O)c1c(C)c(-c2ccccc2)c(-c2ccccc2)c(C)c1C(=O)OC
T/C [4]: 98 % of control | T/C [5]: 95 % of control | T/C [6]: 95 % of control

COC(=O)c1ccc(OCCOc2ccc(C(C)(C)CC(C)(C)C)cc2)c(N)c1
T/C (endpoint: mean survival time, dose: 100.0 mg/kg/injection, schedule: Q04DX003 (ip), vehicle: Klucel (hydroxypropylcellulose) (HPC)): 94 % of control | T/C (endpoint: mean survival time, dose: 200.0 mg/kg/injection, schedule: Q04DX003 (ip), vehicle: Klucel (hydroxypropylcellulose) (HPC)): 100 % of control | T/C (endpoint: mean survival time, dose: 400.0 mg/kg/injection, schedule: Q04DX003 (ip), vehicle: Klucel (hydroxypropylcellulose) (HPC)): 101 % of control

CC1(C)Nc2cc3c(cc2-n2cccc21)oc1ccccc13
T/C (endpoint: median survival time, dose: 50.0 mg/kg/injection, schedule: Q01DX005 (ip), vehicle: DMSO): 98 % of control | T/C (endpoint: median survival time, dose: 100.0 mg/kg/injection, schedule: Q01DX005 (ip), vehicle: DMSO): 103 % of control | T/C (endpoint: median survival time, dose: 200.0 mg/kg/injection, schedule: Q01DX005 (ip), vehicle: DMSO): 100 % of control | T/C (endpoint: median survival time, dose: 400.0 mg/kg/injection, schedule: Q01DX005 (ip), vehicle: DMSO): 101 % of control | T/C (endpoint: median survival time, dose: 800.0 mg/kg/injection, schedule: Q01DX005 (ip), vehicle: DMSO): 103 % of control

C/C(CCC(CC(=O)O)C(C)C)=N\NC(N)=O (centres undefined)
T/C [7]: 97 % of control | T/C [8]: 97 % of control | T/C [9]: 103 % of control

CC(=O)OCC1OC(Oc2c([N+](=O)[O-])cc([N+](=O)[O-])c3ccccc23)C(OC(C)=O)C(OC(C)=O)C1OC(C)=O (centres undefined)
T/C [4]: 96 % of control | T/C [5]: 93 % of control | T/C [6]: 104 % of control

O=C1C(F)=C(F)C(=O)C(F)=C1F
T/C (endpoint: mean survival time, dose: 3.12 mg/kg/injection, schedule: Q01DX009 (ip), vehicle: Klucel (hydroxypropylcellulose) (HPC)): 97 % of control | T/C (endpoint: mean survival time, dose: 6.25 mg/kg/injection, schedule: Q01DX009 (ip), vehicle: Klucel (hydroxypropylcellulose) (HPC)): 98 % of control

NC(=O)NN=C1CCC(CC2CCCCC2)CC1 (centres undefined)
T/C [7]: 112 % of control

NC(CSC(c1ccccc1)(c1ccccc1)c1cccs1)C(=O)O (centres undefined)
T/C (endpoint: mean survival time, dose: 25.0 mg/kg/injection, schedule: Q01DX009 (ip), vehicle: saline): 92 % of control | T/C [10]: 86 % of control | T/C [11]: 95 % of control

CC(=O)NCC(O)C(O)C(O)C(O)COC(=O)c1ccccc1 (centres undefined)
T/C [12]: 95 % of control | T/C [13]: 95 % of control | T/C [14]: 96 % of control

OC12CC(C(F)(F)F)(C(F)(F)F)OC1(O)CC(C(F)(F)F)(C(F)(F)F)O2 (centres undefined)
T/C [15]: 95 % of control | T/C [16]: 95 % of control | T/C [17]: 95 % of control

NNc1ncn[nH]1
T/C (endpoint: mean survival time, dose: 25.0 mg/kg/injection, schedule: Q01DX001 (ip), vehicle: saline with Tween-80): 98 % of control | T/C (endpoint: mean survival time, dose: 50.0 mg/kg/injection, schedule: Q01DX001 (ip), vehicle: saline with Tween-80): 101 % of control

O=C1OC(=O)C2C3C=CC(C3)C12 (centres undefined)
T/C (endpoint: mean survival time, dose: 12.5 mg/kg/injection, schedule: Q04DX003 (ip), vehicle: saline with Tween-80): 95 % of control | T/C (endpoint: mean survival time, dose: 25.0 mg/kg/injection, schedule: Q04DX003 (ip), vehicle: saline with Tween-80): 101 % of control | T/C (endpoint: mean survival time, dose: 50.0 mg/kg/injection, schedule: Q04DX003 (ip), vehicle: saline with Tween-80): 95 % of control | T/C [12]: 98 % of control | T/C [10]: 102 % of control | T/C [7]: 101 % of control | T/C [13]: 100 % of control | T/C [11]: 96 % of control | T/C [8]: 102 % of control | T/C [14]: 93 % of control | T/C (endpoint: mean survival time, dose: 400.0 mg/kg/injection, schedule: Q01DX009 (ip), vehicle: saline): 90 % of control | T/C [9]: 102 % of control

C(=N/N=C(\C(=N\N=C\c1ccc2c(c1)CCC2)c1ccccc1)c1ccccc1)\c1ccc2c(c1)CCC2
T/C [7]: 96 % of control | T/C [8]: 89 % of control | T/C [9]: 87 % of control

O=c1[nH]cc(N(CCCl)CCCl)c(=O)[nH]1
T/C (endpoint: mean survival time, dose: 0.05 mg/kg/injection, schedule: Q01DX009 (ip), vehicle: saline): 101 % of control | T/C (endpoint: mean survival time, dose: 0.08 mg/kg/injection, schedule: Q01DX009 (ip), vehicle: saline): 106 % of control | T/C (endpoint: mean survival time, dose: 0.14 mg/kg/injection, schedule: Q01DX009 (ip), vehicle: saline): 109 % of control | T/C (endpoint: mean survival time, dose: 0.23 mg/kg/injection, schedule: Q01DX009 (ip), vehicle: saline): 112 % of control | T/C (endpoint: mean survival time, dose: 0.23 mg/kg/injection, schedule: Q04DX003 (ip), vehicle: saline): 107 % of control | T/C (endpoint: mean survival time, dose: 0.39 mg/kg/injection, schedule: Q04DX003 (ip), vehicle: saline): 109 % of control | T/C (endpoint: mean survival time, dose: 0.65 mg/kg/injection, schedule: Q01DX001 (ip), vehicle: saline): 115 % of control | T/C (endpoint: mean survival time, dose: 0.65 mg/kg/injection, schedule: Q04DX003 (ip), vehicle: saline): 113 % of control | T/C (endpoint: mean survival time, dose: 1.1 mg/kg/injection, schedule: Q01DX009 (ip), vehicle: saline): 167 % of control | T/C (endpoint: mean survival time, dose: 1.1 mg/kg/injection, schedule: Q04DX003 (ip), vehicle: saline): 151 % of control | T/C (endpoint: mean survival time, dose: 1.8 mg/kg/injection, schedule: Q01DX009 (ip), vehicle: saline): 115 % of control | T/C (endpoint: mean survival time, dose: 1.8 mg/kg/injection, schedule: Q04DX003 (ip), vehicle: saline): 182 % of control | T/C (endpoint: mean survival time, dose: 3.0 mg/kg/injection, schedule: Q01DX001 (ip), vehicle: saline): 163 % of control | T/C (endpoint: mean survival time, dose: 5.0 mg/kg/injection, schedule: Q01DX001 (ip), vehicle: saline): 221 % of control | T/C (endpoint: mean survival time, dose: 5.0 mg/kg/injection, schedule: Q04DX003 (ip), vehicle: saline): 91 % of control | T/C (endpoint: mean survival time, dose: 8.4 mg/kg/injection, schedule: Q01DX001 (ip), vehicle: saline): 110 % of control

CC(=O)C(C)(NCc1ccccc1)c1ccccc1 (centres undefined)
T/C (endpoint: mean survival time, dose: 50.0 mg/kg/injection, schedule: Q01DX009 (ip), vehicle: Klucel (hydroxypropylcellulose) (HPC)): 97 % of control | T/C (endpoint: mean survival time, dose: 100.0 mg/kg/injection, schedule: Q01DX001 (ip), vehicle: other): 100 % of control | T/C [1]: 101 % of control | T/C (endpoint: mean survival time, dose: 100.0 mg/kg/injection, schedule: Q01DX009 (ip), vehicle: Klucel (hydroxypropylcellulose) (HPC)): 100 % of control | T/C (endpoint: mean survival time, dose: 200.0 mg/kg/injection, schedule: Q01DX001 (ip), vehicle: other): 92 % of control | T/C [2]: 95 % of control | T/C (endpoint: mean survival time, dose: 200.0 mg/kg/injection, schedule: Q01DX009 (ip), vehicle: Klucel (hydroxypropylcellulose) (HPC)): 100 % of control | T/C (endpoint: mean survival time, dose: 400.0 mg/kg/injection, schedule: Q01DX001 (ip), vehicle: other): 107 % of control | T/C [3]: 93 % of control | T/C (endpoint: mean survival time, dose: 400.0 mg/kg/injection, schedule: Q01DX009 (ip), vehicle: Klucel (hydroxypropylcellulose) (HPC)): 106 % of control

COC(=O)c1ccccc1NC(=O)CCl
T/C [15]: 96 % of control | T/C [16]: 98 % of control | T/C [17]: 94 % of control
